Key:
L6-myotubes [1] = test: Measurement of intracellular cAMP levels in differentiated L6-myotubes (Biological Example 3); assay type: cell-based; conditions: for Emax at 10 µM: 0.25 h
Method in brief: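 Intracellular cAMP quantified by AlphaScreen after ethanol extraction and lysis of L6 myotubes. Cells were serum-starved overnight, then exposed for 15 min to compound (final 1×10^−5 M) or isoprenaline in IBMX-containing (1 mM) HBSS buffer, pH 7.4.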

L6-myotubes [2] = test: Glucose uptake in differentiated L6-myotubes (Biological Example 2); assay type: cell-based; conditions: for Emax at 10 µM: read-out: Biological example 2 (GU)
Method in brief: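 Uptake was quantified as radioactivity in 0.2 M NaOH lysates after a 10 min pulse of 50 nM ^3H-2-deoxyglucose. The pulse followed two agonist exposures at 1×10^−5 M final (isoprenaline or test compound): 1 h 40 min, then 20 min in glucose-free medium after washing. L6 myotubes had been starved overnight in medium with 0.5% fatty-acid-free BSA.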

[3] = intracellular cAMP, compound at 10 μM relative to isoproterenol at 10 μM
[4] = glucose uptake, compound at 10 μM relative to isoproterenol at 10 μM
[5] = intracellular cAMP in differentiated L6-myotubes, compound at 10 μM, activity relative to isoproterenol at 10 μM
[6] = glucose uptake in differentiated L6-myotubes, compound at 10 μM, activity relative to isoproterenol at 10 μM

Row | Compound | Emax at 10 µM (L6-myotubes [1]; [5]) | Emax at 10 µM (L6-myotubes [2]; [6]) | Emax at 10 µM (L6-myotubes [1]; [3]) | Emax at 10 µM (L6-myotubes [2]; [4]) | other results
1 | CCC[C@@H]1CC[C@H]([C@@H](O)c2cccc(O)c2)N1 [Compound 127, m-{(S)-[(2R,5R)-5-propyl-2-pyrrolidinyl] hydroxymethyl}phenol] | – | – | – | – | Biological example 3 (CAMP) (L6-myotubes [1]; [3]): − (if it less than 25% it is denoted with −); Biological example 2 (GU) (L6-myotubes [2]; [4]): + (if it is between 50 and 25% it is denoted with +)
2 | CC1(C)CC[C@H]([C@@H](O)c2cc(F)c(N)c(F)c2)N1 [Compound 236] | 25 to 50% | > 75% | – | – | –
3 | CCCCNC[C@H](O)c1cccc(F)c1F [Compound 77, (R)-2-(butylamino)-1-(2,3-difluorophenyl)-1-ethanol] | – | – | < 25% | > 75% | –
4 | CC12CCC([C@H](O)c3ccccc3Cl)(CC1)N2 [Compound 195, (R)-(o-chlorophenyl)(4-methyl-7-azabicyclo[[2.2.1]]hept-1-yl)methanol] | – | – | < 25% | > 75% | –
5 | CC(C)(C[C@H]1CC[C@@H](NC(=O)OC(C)(C)C)CC1)NC[C@H](O)c1cccc(C(F)(F)F)n1 [Compound 450, (1R,4s)-4-(2-{(S)-2-hydroxy-2-[6-(trifluoromethyl)-2-pyridyl]]ethylamino}-2-methylpropyl)cyclohexyl 2-methyl-2-propanecarbamate] | < 25% | < 25% | – | – | –
6 | CCCCNCC(O)c1cc(Cl)c(N)c(Cl)c1 (stereo not shown) [Compound 29, 1-(4-amino-3,5-dichlorophenyl)-2-(butylamino)-1-ethanol] | – | – | 25 to 50% | > 75% | –
7 | CC(C)(C[C@H]1CC[C@H](C(=O)O)CC1)NC[C@H](O)c1cccc(F)c1 [Compound 355, (1R,4r)-4-{2-[(R)-2-(m-fluorophenyl)-2-hydroxyethylamino]-2-methylpropyl} cyclohexanecarboxylic acid] | < 25% | 50 to 75% | – | – | –
8 | CC(=O)N[C@H]1CC[C@H](CC(C)(C)NC[C@H](O)c2cccc(C(F)(F)F)n2)CC1 [Compound 460] | < 25% | 50 to 75% | – | – | –
9 | CC(C)(NC[C@H](O)c1cccc(F)c1)[C@H]1CC[C@H](N)CC1 [Compound 381] | < 25% | 50 to 75% | – | – | –
10 | O[C@@H](c1cncc(F)c1)C12CCC(CCc3ccc(OC(F)(F)F)cc3)(CC1)N2 [Compound 543, (S)-(5-fluoro-3-pyridyl){4-[2-(p-trifluoromethoxyphenyl)ethyl]-7-azabicyclo[[2.2.1]]hept-1-yl}methanol] | < 25% | < 25% | – | – | –
11 | O[C@@H](CNC[C@H]1CC[C@H](OCc2ccccc2)CC1)c1cccc(F)c1 [Compound 271, (R)-1-(m-fluorophenyl)-2-({[(1r,4R)-4-(benzyloxy)cyclohexyl]methyl}amino)-1-ethanol] | < 25% | 25 to 50% | – | – | –
12 | O[C@@H](c1cccc(F)c1)C12CCC(COCc3ccc(Cl)cc3)(CC1)N2 [Compound 395, (S)-(4-{[(p-chlorophenyl)methoxy]methyl}-7-azabicyclo[[2.2.1]]hept-1-yl)(m-fluorophenyl)methanol] | < 25% | 50 to 75% | – | – | –
13 | CCS(=O)(=O)N[C@H]1CC[C@@H](CC(C)(C)NC[C@H](O)c2cncc(F)c2)CC1 [Compound 524] | < 25% | 50 to 75% | – | – | –
14 | CO[C@H]1CC[C@H](C[C@H]2CC[C@H]([C@H](O)c3ccccc3F)N2)CC1 [Compound 339, (R)-[(2R,5R)-5-{[(1r,4R)-4-methoxycyclohexyl]methyl}-2-pyrrolidinyl](o-fluorophenyl)methanol] | < 25% | > 75% | – | – | –
15 | CC12CC(C1)[C@@H]([C@H](O)c1ccccc1F)N2 [Compound 213] | < 25% | > 75% | – | – | –
16 | CCC[C@H]1CCC[C@H]([C@H](O)c2cc(F)cc(F)c2)N1 [Compound 68] | – | – | < 25% | 50 to 75% | –
17 | CN(C)S(=O)(=O)[C@H]1CC[C@@H](CC(C)(C)NC[C@H](O)c2cncc(F)c2)CC1 [Compound 471] | 50 to 75% | > 75% | – | – | –
18 | CCC[C@H]1CCC[C@H]([C@@H](O)c2cccc(Cl)c2)N1 [Compound 128] | – | – | < 25% | 25 to 50% | –
19 | CC(C)(NC[C@H](O)c1cccc(F)c1)[C@H]1CC[C@H](C(=O)O)CC1 [Compound 368, (1R,4r)-8-[(R)-2-(m-fluorophenyl)-2-hydroxyethylamino]-7-hydroxy-p-menthan-7-one] | < 25% | 25 to 50% | – | – | –

Row | Compound | Emax at 10 µM (L6-myotubes [1]; [5]) | Emax at 10 µM (L6-myotubes [2]; [6]) | Emax at 10 µM (L6-myotubes [1]; [3]) | Emax at 10 µM (L6-myotubes [2]; [4]) | other results
20 | CO[C@H]1CC[C@H](CCC(C)(C)NC[C@H](O)c2cccc(F)c2)CC1 [Compound 265, (R)-2-{1,1-dimethyl-3-[(1r,4S)-4-methoxycyclohexyl]propylamino}-1-(m-fluorophenyl)-1-ethanol] | < 25% | 50 to 75% | – | – | –
21 | O[C@@H](CNCC[C@H]1CC[C@H](OCc2ccccc2)CC1)c1cncc(F)c1 [Compound 292, (R)-1-(5-fluoro-3-pyridyl)-2-{2-[(1r,4R)-4-(benzyloxy)cyclohexyl]ethylamino}-1-ethanol] | < 25% | < 25% | – | – | –
22 | CC(C)(C[C@H]1CC[C@H](N)CC1)NC[C@@H](O)c1cccc(C#N)n1 [Compound 415] | < 25% | 50 to 75% | – | – | –
23 | CO[C@H]1CC[C@H](C(C)(C)NC[C@H](O)c2cncc(F)c2)CC1 [Compound 240, (R)-1-(5-fluoro-3-pyridyl)-2-{1-methyl-1-[(1r,4R)-4-methoxycyclohexyl]ethylamino}-1-ethanol] | < 25% | > 75% | – | – | –
24 | CC(=O)N[C@H]1CC[C@H](CC(C)(C)NC[C@H](O)c2cccc(F)c2)CC1 [Compound 383] | 25 to 50% | > 75% | – | – | –
25 | CC(C)(C)NC[C@H](O)c1ccc(Cl)cn1 [Compound 147, (S)-2-(tert-butylamino)-1-(5-chloro-2-pyridyl)-1-ethanol] | – | – | < 25% | 25 to 50% | –
26 | CN(C)S(=O)(=O)[C@H]1CC[C@H](CC(C)(C)NC[C@H](O)c2cccc(F)c2)CC1 [Compound 464] | 25 to 50% | 25 to 50% | – | – | –
27 | CC(C)(C[C@H]1CC[C@@H](NC(=O)OC(C)(C)C)CC1)NC[C@H](O)c1cncc(F)c1 [Compound 469, (1S,4s)-4-{2-[(R)-2-(5-fluoro-3-pyridyl)-2-hydroxyethylamino]-2-methylpropyl}cyclohexy-2-methyl-2-propanecarbamate] | – | – | – | – | Biological example 3 (CAMP) (L6-myotubes [1]; [5]): − (if it less than 25% it is denoted with −); Biological example 2 (GU) (L6-myotubes [2]; [6]): +++ (If a compound at 10 μM shows activity of more than 75% of that of isoproterenol at 10 μM, the activity is denoted with +++)
28 | CC1(C)CCC[C@H]([C@H](O)c2cccc(F)c2)N1 [Compound 102] | – | – | < 25% | 50 to 75% | –
29 | COc1ccc(C[C@H]2CC[C@H]([C@H](O)c3cncc(F)c3)N2)cc1 [Compound 379, (R)-{(2R,5R)-5-[(p-methoxyphenyl)methyl]-2-pyrrolidinyl}(5-fluoro-3-pyridyl)methanol] | < 25% | > 75% | – | – | –
30 | CCCCNCC(O)c1ccc(Cl)c(O)c1 (stereo not shown) [Compound 34, 2-(butylamino)-1-(4-chloro-3-hydroxyphenyl)-1-ethanol] | – | – | < 25% | > 75% | –
31 | CC1(NC[C@H](O)c2cccc(F)c2)CCC1 [Compound 83, (R)-1-(m-fluorophenyl)-2-(1-methylcyclobutylamino)-1-ethanol] | – | – | 25 to 50% | > 75% | –
32 | CC1(C)CC[C@H]([C@H](O)c2cccc(N)c2F)N1 [Compound 227, (R)-[(R)-5,5-dimethyl-2-pyrrolidinyl](3-amino-2-fluorophenyl)methanol] | < 25% | > 75% | – | – | –
33 | COc1ccc(CCC23CCC([C@H](O)c4cccc(F)c4)(CC2)N3)cc1 [Compound 540, (R)-(m-fluorophenyl){4-[2-(p-methoxyphenyl)ethyl]-7-azabicyclo[[2.2.1]]hept-1-yl}methanol] | 25 to 50% | 50 to 75% | – | – | –
34 | CCCCNC[C@H](O)c1cnc(NC(=O)C(C)C)s1 [Compound 74, N-{5-[(S)-2-(butylamino)-1-hydroxyethyl]-1,3-thiazol-2-yl}2-methylpropionamide] | – | – | < 25% | 25 to 50% | –
35 | CC(C)(C)NC[C@H](O)c1cncc(Cl)c1 [Compound 138, (R)-2-(tert-butylamino)-1-(5-chloro-3-pyridyl)-1-ethanol] | – | – | > 75% | > 75% | –
36 | O[C@H](c1cccc(F)c1)[C@H]1CCC2(CC2)N1 [Compound 170, (R)-{(R)-4-aza-5-spiro[2.4]heptyl}(m-fluorophenyl)methanol] | – | – | < 25% | 50 to 75% | –
37 | CC(=O)N[C@H]1CC[C@@H](CC(C)(C)NC[C@H](O)c2cccc(C(F)(F)F)n2)CC1 [Compound 462] | < 25% | 25 to 50% | – | – | –
38 | CS(=O)(=O)N[C@H]1CC[C@@H](CNC[C@H](O)c2cncc(F)c2)CC1 [Compound 314, (R)-1-(5-fluoro-3-pyridyl)-2-({[(1s,4S)-4-(mesylamino)cyclohexyl]methyl}amino)-1-ethanol] | < 25% | 50 to 75% | – | – | –

From patent US20260216294A1, “BETA 2-ADRENERGIC RECEPTOR AGONISTS FOR TREATMENT OR PREVENTION OF MUSCLE WASTING” (ATROGI AB, priority 2023, published 2026)
